Measurements published in publication PMC11352859, “Functionalized Congeners of 2H-Chromene P2Y6 Receptor Antagonists” (Cells, 2024).

How the values were obtained:
D4 = biological target: T1, D4 (Homo sapiens, UniProt P21917); assay: PDSP binding assay, D4; conditions: mean, n = 2
T1 construct: NIMH Psychoactive Drug Screening Program (PDSP)
Source text: (§1) Table S2. Off-target screening (to replace table later). We thank Dr. Bryan L. Roth (Univ. North Carolina at Chapel Hill) and National Institute of Mental Health's Psychoactive Drug Screening Program (Contract # HHSN-271-2008-00025-C) for screening data. Reference: Besnard et al.
(§2) Procedures: https://pdsp.unc.edu/pdspweb/content/UNC-CH%20Protocol%20Book.pdf […]
(§3) nucleosides were found at the following sites (human unless noted): 5HT1A, 5HT1B, 5HT1D, […]
(§4) β3, BZP rat brain site, D1, D2, D3, D4, D5, GABAA, H1, H2, H3, H4, M1, M2, M5, δ-opioid receptor (DOR), κ-opioid receptor (KOR), μ-opioid receptor (MOR), σ1, σ2, DAT, NET, SERT. Ki values […]
(§5) Compound # PDSP # Receptor LogKi Ki (nM)

SERT = biological target: T2, SERT (Homo sapiens, UniProt P31645); assay: PDSP binding assay, SERT; conditions: Table S2, single determination
T2 construct: NIMH Psychoactive Drug Screening Program (PDSP)
T2 sequence (P31645 whole entry): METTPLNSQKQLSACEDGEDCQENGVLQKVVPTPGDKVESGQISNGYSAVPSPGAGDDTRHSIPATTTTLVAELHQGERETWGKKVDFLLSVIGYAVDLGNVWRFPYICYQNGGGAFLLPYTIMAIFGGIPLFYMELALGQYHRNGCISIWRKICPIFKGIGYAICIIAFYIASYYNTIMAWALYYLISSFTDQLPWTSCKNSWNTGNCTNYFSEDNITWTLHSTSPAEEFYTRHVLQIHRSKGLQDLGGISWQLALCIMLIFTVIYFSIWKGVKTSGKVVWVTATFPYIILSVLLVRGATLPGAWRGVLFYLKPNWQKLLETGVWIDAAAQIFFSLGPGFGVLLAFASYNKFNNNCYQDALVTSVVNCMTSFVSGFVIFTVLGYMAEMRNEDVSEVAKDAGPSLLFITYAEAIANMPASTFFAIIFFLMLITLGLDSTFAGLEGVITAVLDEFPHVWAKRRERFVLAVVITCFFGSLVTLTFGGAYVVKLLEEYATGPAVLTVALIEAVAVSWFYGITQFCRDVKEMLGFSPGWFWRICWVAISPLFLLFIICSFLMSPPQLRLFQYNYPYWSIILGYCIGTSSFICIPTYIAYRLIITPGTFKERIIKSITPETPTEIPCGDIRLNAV
Source text: as §1, §2, §3, §4, §5

α2B = biological target: T3, α2B (Homo sapiens, UniProt P18089); assay: PDSP binding assay, α2B; conditions: mean, n = 2
T3 construct: NIMH Psychoactive Drug Screening Program (PDSP)
T3 sequence (P18089 1-450): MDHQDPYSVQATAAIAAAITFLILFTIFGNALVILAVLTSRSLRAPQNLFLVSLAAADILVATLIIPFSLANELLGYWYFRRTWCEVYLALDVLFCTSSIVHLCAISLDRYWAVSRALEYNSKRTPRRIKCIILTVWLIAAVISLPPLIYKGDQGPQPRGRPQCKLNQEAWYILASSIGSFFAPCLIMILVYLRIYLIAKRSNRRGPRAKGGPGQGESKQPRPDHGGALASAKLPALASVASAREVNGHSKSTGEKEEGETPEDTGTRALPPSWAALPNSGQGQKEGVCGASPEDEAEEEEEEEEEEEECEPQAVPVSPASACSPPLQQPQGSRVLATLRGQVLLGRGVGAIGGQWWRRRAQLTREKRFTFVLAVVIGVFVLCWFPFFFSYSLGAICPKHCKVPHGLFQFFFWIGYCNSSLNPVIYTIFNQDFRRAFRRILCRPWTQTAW
Source text: as §1, §2, §3, §4, §5

D3 = biological target: T4, D3 (Homo sapiens, UniProt P35462); assay: PDSP binding assay, D3; conditions: Table S2, single determination
T4 construct: NIMH Psychoactive Drug Screening Program (PDSP)
T4 sequence (P35462 whole entry): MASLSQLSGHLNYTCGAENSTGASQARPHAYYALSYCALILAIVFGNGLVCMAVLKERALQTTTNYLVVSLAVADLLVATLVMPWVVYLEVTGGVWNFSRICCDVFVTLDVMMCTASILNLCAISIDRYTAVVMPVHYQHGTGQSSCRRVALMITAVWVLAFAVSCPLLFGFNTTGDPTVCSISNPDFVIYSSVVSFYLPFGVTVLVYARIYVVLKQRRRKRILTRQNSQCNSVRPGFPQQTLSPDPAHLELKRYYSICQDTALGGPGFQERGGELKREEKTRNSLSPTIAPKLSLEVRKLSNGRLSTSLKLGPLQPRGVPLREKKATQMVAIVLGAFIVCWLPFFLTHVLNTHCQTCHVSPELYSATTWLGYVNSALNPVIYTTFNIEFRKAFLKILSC
Source text: as §1, §2, §3, §4, §5

H2 = biological target: T5, H2 (Homo sapiens, UniProt P25021); assay: PDSP binding assay, H2; conditions: mean, n = 2
T5 construct: NIMH Psychoactive Drug Screening Program (PDSP)
T5 sequence (P25021 whole entry): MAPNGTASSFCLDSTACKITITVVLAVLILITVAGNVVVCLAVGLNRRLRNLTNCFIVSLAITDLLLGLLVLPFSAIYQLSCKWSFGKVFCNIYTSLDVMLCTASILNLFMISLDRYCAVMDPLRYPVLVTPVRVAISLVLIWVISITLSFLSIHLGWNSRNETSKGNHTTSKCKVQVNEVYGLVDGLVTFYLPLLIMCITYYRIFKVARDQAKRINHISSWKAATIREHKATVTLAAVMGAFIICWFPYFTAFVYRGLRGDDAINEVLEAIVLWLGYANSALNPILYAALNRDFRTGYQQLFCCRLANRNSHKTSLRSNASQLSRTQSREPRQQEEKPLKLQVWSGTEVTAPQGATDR
Source text: as §1, §2, §3, §4, §5

T1 sequence (P21917 whole entry): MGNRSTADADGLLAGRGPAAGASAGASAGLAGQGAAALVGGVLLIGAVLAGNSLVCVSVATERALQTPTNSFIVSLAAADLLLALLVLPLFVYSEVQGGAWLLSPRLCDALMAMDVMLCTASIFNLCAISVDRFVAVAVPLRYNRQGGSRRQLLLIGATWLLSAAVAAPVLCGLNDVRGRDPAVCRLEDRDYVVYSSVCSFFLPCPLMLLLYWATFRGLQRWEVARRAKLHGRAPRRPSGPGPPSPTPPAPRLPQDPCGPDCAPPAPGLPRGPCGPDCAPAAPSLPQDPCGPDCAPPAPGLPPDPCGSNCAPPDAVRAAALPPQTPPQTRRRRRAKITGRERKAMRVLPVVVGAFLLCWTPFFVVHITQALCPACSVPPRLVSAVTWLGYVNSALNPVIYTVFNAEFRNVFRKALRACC

CC(C)(C)OC(=O)NCCCCCCCC#Cc1ccc2c(c1)C=C([N+](=O)[O-])C(C(F)(F)F)O2 (centres unmarked) [Compound 30, tert-Butyl (9-(3-nitro-2-(trifluoromethyl)-2H-chromen-6-yl)non-8-yn-1-yl)carbamate]
Ki (D4): 3.1 µM | Ki (SERT): > 10000 nM | Ki (α2B): 170 nM | Ki (D3): > 10000 nM | Ki (H2): 500 nM
